Reference: the supplement of paper PMC11821682

Tests used:
Danio rerio embryo = experiment: BMC10 any morphological effect or mortality at 120 hpf; higher = less toxic
HL-60 = experiment: Cell Health Index (toxicity pseudo-probability over dose series) (index 0-1); higher = more cytotoxic / cell stress;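 also: HL-60 cells exposed 4 h at 37 °C to ten threefold dilutions spanning 5 nM to 100 µM, multiparametric flow cytometry features scored by machine-learning classification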

Structure (SMILES)	BMC10 any morphological effect or mortality (Danio rerio embryo)	Cell Health Index (HL-60)
CNc1ncnc2c1ncn2[C@@H]1O[C@H](CO)[C@@H](O)[C@H]1O [N6-Methyladenosine]	> 100 µM	0.307
CC(=O)NC1[C@H]([C@H](O)[C@H](O)CO)O[C@@](O[C@H]2[C@@H](O)[C@@H](CO)O[C@@H](O[C@@H]([C@H](O)[C@@H](O)C=O)[C@H](O)CO)[C@@H]2O)(C(=O)[O-])C[C@@H]1O.[Na+] (stereo not given in full) [N-Acetylneuraminoyllactose]	> 100 µM	0.235
CCCCCCCCCN1C[C@H](O)[C@@H](O)[C@H](O)[C@H]1CO [N-Nonyldeoxynojirimycin]	> 100 µM	0.254
CC(=O)N[C@@H](CS)C(=O)O [N-acetyl-L-Cysteine]	> 100 µM	0.143
CS(=O)(=O)O.Cc1c(O)cccc1C(=O)N[C@@H](CSc1ccccc1)[C@H](O)CN1C[C@H]2CCCC[C@H]2C[C@H]1C(=O)NC(C)(C)C [Nelfinavir]	> 100 µM	0.453
C=C1CC[C@@H]2[C@](C)(CO[C@@H]3O[C@H](CO)[C@@H](O)[C@H](O)[C@H]3O)CCC[C@@]2(C)[C@@H]1CCC1=CCOC1=O [Neoandrographolide]	> 100 µM	0.21
Cc1ccnc2c1NC(=O)c1cccnc1N2C1CC1 [Nevirapine]	> 100 µM	0.185
CC(=O)O[C@H]1CC(=O)OC(C)(C)[C@@H]2CC(=O)[C@]3(C)[C@H](CC[C@@]4(C)[C@H](c5ccoc5)OC(=O)[C@H]5O[C@]543)[C@@]12C [Nomilin]	> 100 µM	0.278
O=c1cc(-c2ccc(O)c(O)c2)oc2c([C@@H]3O[C@H](CO)[C@@H](O)[C@H](O)[C@H]3O)c(O)cc(O)c12 [Orientin]	> 100 µM	0.337
CCOC(=O)C1=C[C@@H](OC(CC)CC)[C@H](NC(C)=O)[C@@H](N)C1.O=P(O)(O)O [Oseltamivir]	> 100 µM	0.252
O=C1CCC[C@@H]2[C@H]3CCC[N+]4([O-])CCC[C@@H](CN12)[C@@H]34 (stereo not given in full) [Oxymatrine]	> 100 µM	0.187
Oc1cc(O)cc(/C=C/c2ccc(O)cc2O)c1 [Oxyresveratrol]	> 100 µM	0.673
CC(=O)Nc1nc(C)c(-c2ccc(Cl)c(S(=O)(=O)NCCO)c2)s1 [PIK-93]	> 100 µM	0.267
CCCn1c(=O)[nH]c2nc(-c3ccc(S(=O)(=O)N4CCN(c5ccc(Cl)cc5)CC4)cc3)[nH]c2c1=O [PSB-603]	> 100 µM	0.489
C[C@@]1(F)[C@H](O)[C@@H](CO)O[C@H]1n1ccc(=O)[nH]c1=O [PSI-6206]	> 100 µM	0.116
CCCCCCCCCCCCCCCC(=O)NCCO [Palmitoyl ethanolamide]	> 100 µM	0.283
Cc1cnc(C(=O)N[C@H]2CCCCC/C=C\[C@@H]3C[C@@]3(C(=O)NS(=O)(=O)C3CC3)NC(=O)[C@@H]3C[C@@H](Oc4nc5ccccc5c5ccccc45)CN3C2=O)cn1 [Paritaprevir]	> 100 µM	0.626
C[C@H]1CC[C@@]2(O)C(C)(C)[C@@H]3CC[C@@]2(C)[C@H]1C3 [Patchouli alcohol]	> 100 µM	0.202

Structure (SMILES)	BMC10 any morphological effect or mortality (Danio rerio embryo)	Cell Health Index (HL-60)
Nc1nc(=O)c2c(CCc3ccc(C(=O)N[C@@H](CCC(=O)[O-])C(=O)[O-])cc3)c[nH]c2[nH]1.O.O.O.O.O.O.O.[Na+].[Na+] [Pemetrexed]	> 100 µM	0.15
Nc1nc(=O)c2ncn(CCC(CO)CO)c2[nH]1 [Penciclovir]	> 100 µM	0.126
CC(=O)CCCCn1c(=O)c2c(ncn2C)n(C)c1=O [Pentoxifylline]	> 100 µM	0.147
CC(C)CC(=O)N[C@H](C(=O)N[C@H](C(=O)N[C@@H](CC(C)C)[C@@H](O)CC(=O)N[C@@H](C)C(=O)N[C@@H](CC(C)C)[C@@H](O)CC(=O)O)C(C)C)C(C)C [Pepstatin A]	> 100 µM	0.154
CCC(CC)[C@H](NC(C)=O)[C@@H]1[C@H](O)[C@@H](C(=O)O)C[C@H]1NC(=N)N [Peramivir]	> 100 µM	0.202
CC(C)Cc1ncc(Cc2ccccc2)[nH]c1=O [Pheleuin]	> 100 µM	0.182
O=C1NC(=O)C(c2ccccc2)(c2ccccc2)N1 [Phenytoin]	> 100 µM	0.193
COC(=O)N[C@H](C(=O)N1CCC[C@H]1c1nc2cc([C@H]3CC[C@H](c4cc5nc([C@@H]6CCCN6C(=O)[C@@H](NC(=O)OC)[C@@H](C)OC)[nH]c5cc4F)N3c3cc(F)c(N4CCC(c5ccc(F)cc5)CC4)c(F)c3)c(F)cc2[nH]1)[C@@H](C)OC [Pibrentasvir]	> 100 µM	0.268
c1cc(CN2CCCNCCNCCCNCC2)ccc1CN1CCCNCCNCCCNCC1 [Plerixafor]	> 100 µM	0.115
OC[C@H]1O[C@@H](Oc2cc(O)cc(C=Cc3ccc(O)cc3)c2)[C@H](O)[C@@H](O)[C@@H]1O [Polydatin]	> 100 µM	0.106
Cc1nc(N(C)C(=O)Cc2ccc(-c3ccccn3)cc2)sc1S(N)(=O)=O [Pritelivir]	> 100 µM	0.209
CCCN(CCC)S(=O)(=O)c1ccc(C(=O)O)cc1 [Probenecid]	> 100 µM	0.196
O=CC1OC(=O)c2cc(O)c(O)c(O)c2-c2c(cc(O)c(O)c2O)C(=O)OC1C1OC(=O)c2cc(O)c(O)c(O)c2-c2c(O)c(O)c3oc(=O)c4c(c(O)c(O)c5oc(=O)c2c3c54)-c2c(cc(O)c(O)c2O)C(=O)OCC1O (stereo not given) [Punicalagin]	> 100 µM	0.837
CC(C)[C@H](NC(=O)c1ccc2ccccc2n1)C(=O)N[C@@H](CC(=O)O)C(=O)COc1c(F)cccc1F [Q-VD-OPH]	> 100 µM	0.221
O=c1c(O[C@@H]2O[C@H](CO)[C@H](O)[C@H](O)[C@H]2O)c(-c2ccc(O)c(O)c2)oc2cc(O)cc(O)c12 [Quercetin 3-D-galactoside]	> 100 µM	0.218
C=C[C@H]1C[N@@]2CC[C@H]1C[C@H]2[C@H](O)c1ccnc2ccc(OC)cc12 [Quinine]	> 100 µM	0.249
Cc1nnc(C(=O)NC(C)(C)c2nc(C(=O)NCc3ccc(F)cc3)c([O-])c(=O)n2C)o1.[K+] [Raltegravir]	> 100 µM	0.218
